Results on 15 molecules are retold here after US11357817B2, “Immunoproteasome inhibitor” (The Regents of the University of California, priority 2017, dated 2022).

For one assay, the system named is HepG2 cells. The assay is described as follows: HepG2 cytotoxicity assay. It is filed as cell-based. The settings on record: Homo sapiens. Here is the method: The liver-stage and HepG2 toxicity assays were performed as previously reported (35). Briefly, HepG2-A16-CD81EGFP, human hepatocarcinoma HepG2 cells stably transformed to express the tetraspanin CD81 receptor (36, 37) and thus susceptible to P. berghei infection, were cultured at 37° C. in 5% CO2 in DMEM (Life Technologies, Calif.) supplemented with 10% FBS, 0.29 mg/ml glutamine, 100 unit penicillin and 100 μg/ml streptomycin. For both the P. berghei-luciferase and HepG2 cytotoxicity assays, 3×10^3 of the HepG2-A16-CD81EGFP cells in 5 μl of assay medium (DMEM without Phenol Red (Life Technologies, Calif.), 5% FBS, and 5× Pen Strep Glutamine (Life Technologies, Calif.)) at concentration 6×10^5 cells/ml were seeded in 1536-well plates (Greiner BioOne white solid bottom custom GNF mold) 20-26 hours prior to the actual infection. 18 hours prior to infection, 50 nl of compound in DMSO (0.5% final DMSO concentration per well) were transferred with Acoustic Transfer System (ATS) (Biosero) into the assay plates. Atovaquone (12-point serial dilution starting at 10 μM) and Puromycin (12-point serial dilution starting at 10 μM) were used as positive controls for Pb. liver stage assay and HepG2 cytotoxicity respectively. 0.5% DMSO was used as negative control for the both assays.
An. stephensi mosquitoes, infected with P. berghei-luciferase, were provided by the New York University Insectary. P. berghei-luciferase sporozoites were freshly dissected from the infected A. stephensi mosquito salivary glands, filtered twice through a 20 μm nylon net filter using Steriflip Vacuum-Driven Filtration System (Millipore), counted in a hemocytometer, and then adjusted to final concentration 200 sporozoites per μl in the assay media. […] The HepG2-A16-CD81EGFP cell designated for toxicity studies were left uninfected, with 5 ul of additional assay media added to each well to maintain equal concentrations of compounds with P. berghei-luciferase infected plates. After incubation at 37° C. for 48 hours the exoerythrocytic growth and HepG2-A16-CD81EGFP cell viability were quantified by a bioluminescence measurement.
The HepG2 cytotoxicity was assessed by removing the media through an inverted spin of the plates at 150 g for 30 s and addition of 2 μL of CellTiterGlo reagent (Promega diluted 1:2 with deionized water) per well using the MicroFlo liquid handler (BioTek). Immediately after addition of the luminescence reagent, the plates were vortexed for 10 s and read with an EnVision Multilabel reader (PerkinElmer). IC50 values were obtained as above.

The subject of a further assay is P. falciparum Dd2. The assay is described as follows: P. falciparum Dd2 asexual blood stage SYBR Green I compound sensitivity assay. The format is cell-based, Plasmodium falciparum. Particulars: for Selectivity Index: P. falciparum activity versus HepG2 activity; for IC50: asexual blood stage, 72 hour SYBR green assay. How it is done:
P. falciparum Dd2 strain parasites were cultured under standard conditions (31), using RPMI media supplemented with 0.05 mg/ml gentamycin, 0.014 mg/mL hypoxanthine (prepared fresh), 38.4 mM HEPES, 0.2% Sodium Bicarbonate, 3.4 mM Sodium Hydroxide, 0.05% O+ Human Serum (Denatured at […] for 40 min and From Interstate Blood Bank, Memphis, Tenn.) and 0.0025% Albumax). Human O+ whole blood was obtained from TSRI blood bank (La Jolla, Calif.). Leukocyte-free erythrocytes are stored at 50% hematocrit in RPMI-1640 screening media (as above, but without O+ human serum and with 2× albumax concentration) at 4° C. for one to three weeks before experimental use. Cultures were monitored every one to two days via Giemsa-stained thin smears.
Compound susceptibility was measured using the malaria SYBR Green I-based fluorescence assay (32). Asynchronous P. falciparum parasites (Dd2 strain) were cultured in standard conditions before being plated for the assays. Each compound was tested over 72 hours in technical duplicates on a twelve-point concentration curve prepared by three-fold dilution from 6.7 μM to 0.11 nM. At least three independent experiments were carried out for IC50 determination. Artemisinin and chloroquine were used as controls. IC50 values were obtained using normalized fluorescence intensity from SYBR green I and analyzed via non-linear variable slope four-parameter regression curve-fitting model in Prism 6 (GraphPad Software Inc).

The mark [1] stands for this setting: Plasmodium falciparum, DD2, 72 h.

Some results are limits rather than exact numbers.

In the case of `CCCCCC(=O)NC(Cc1ccc(N)cc1)C(=O)N[C@@H](Cc1ccc(N)cc1)C(=O)N[C@@H](CC(C)C)C(=O)[C@@]1(C)CO1` (stereo in doubt) [Analog 12, N—((R)-3-(4-aminophenyl)-1-(((S)-3-(4-aminophenyl)-1-(((S)-4-methyl-1-((R)-2-methyloxiran-2-yl)-1-oxopentan-2-yl)amino)-1-oxopropan-2-yl)amino)-1-oxopropan-2-yl)hexanamide], the IC50 in the assay on HepG2 cells is 0.91 ± 0.25 nM; with P. falciparum Dd2 (setting [1]), 59.6 ± 15.4 nM. The “Selectivity Index” value with P. falciparum Dd2 is on record as 0.02.
For `CCCCCC(=O)NC(Cc1ccc(N)cc1)C(=O)N[C@@H](Cc1ccc(N)cc1)C(=O)N[C@@H](Cc1ccccc1)C(=O)[C@@]1(C)CO1` (stereo in doubt) [Analog 13, N—((R)-3-(4-aminophenyl)-1-(((S)-3-(4-aminophenyl)-1-(((S)-1-((R)-2-methyloxiran-2-yl)-1-oxo-3-phenylpropan-2-yl)amino)-1-oxopropan-2-yl)amino)-1-oxopropan-2-yl)hexanamide], in that order: 952 ± 275 nM, 68.2 ± 15.4 nM and 13.96.
In the same order, the values of `CCCCCC(=O)NC(Cc1ccc(NC(=O)OC(C)(C)C)cc1)C(=O)N[C@@H](Cc1ccc(NC(=O)OC(C)(C)C)cc1)C(=O)N[C@@H](CC(C)C)C(=O)[C@@]1(C)CO1` (stereo in doubt) [Analog 14, tert-butyl (4-((R)-3-(((S)-3-(4-((tert-butoxycarbonyl)amino)phenyl)-1-(((S)-4-methyl-1-((R)-2-methyloxiran-2-yl)-1-oxopentan-2-yl)amino)-1-oxopropan-2-yl)amino)-2-hexanamido-3-oxopropyl)phenyl)carbamate] are 118 ± 21.7 nM, 13.5 ± 4.69 nM and 8.74.
For `CCCCCC(=O)NC(Cc1ccc(NC(=O)OC(C)(C)C)cc1)C(=O)N[C@@H](Cc1ccc(NC(=O)OC(C)(C)C)cc1)C(=O)N[C@@H](Cc1ccccc1)C(=O)[C@@]1(C)CO1` (stereo in doubt) [Analog 15, tert-butyl (4-((R)-3-(((S)-3-(4-((tert-butoxycarbonyl)amino)phenyl)-1-(((S)-1-((R)-2-methyloxiran-2-yl)-1-oxo-3-phenylpropan-2-yl)amino)-1-oxopropan-2-yl)amino)-2-hexanamido-3-oxopropyl)phenyl)carbamate], in that order: 45.7 ± 15.7 nM, 12.2 ± 3.83 nM and 3.75.
With `CCCCCC(=O)N[C@@H](Cc1ccccc1)C(=O)N[C@@H](CCCC)C(=O)N[C@@H](CC(C)C)C(=O)[C@@]1(C)CO1` [Analog 2, (S)-2-((S)-2-hexanamido-3-phenylpropanamido)-N—((S)-4-methyl-1-((R)-2-methyloxiran-2-yl)-1-oxopentan-2-yl)hexanamide], the concentration for half-maximal inhibition (IC50) came out at 22.7 ± 8.42 nM in the assay on HepG2 cells and 4.04 ± 0.759 nM in the assay on P. falciparum Dd2 (setting [1]). Further, the “Selectivity Index” value in the assay with P. falciparum Dd2 is reported as 5.62.
As to `CCCCCC(=O)N[C@@H](Cc1ccncc1)C(=O)N[C@@H](CCCC)C(=O)N[C@@H](CC(C)C)C(=O)[C@@]1(C)CO1` [Analog 3, (S)-2-((S)-2-hexanamido-3-(pyridin-4-yl)propanamido)-N—((S)-4-methyl-1-((R)-2-methyloxiran-2-yl)-1-oxopentan-2-yl)hexanamide], the values for the IC50 in the assay with HepG2 cells and with P. falciparum Dd2 (listed as 3) were < 0.283 nM and 3.28 ± 0.674 nM, respectively. The “Selectivity Index” value in the assay with P. falciparum Dd2 (listed as 3) is on record as 0.09.
Turning to `CCCCCC(=O)N[C@@H](Cc1ccc(N)cc1)C(=O)N[C@@H](CCCC)C(=O)N[C@@H](CC(C)C)C(=O)[C@@]1(C)CO1` [Analog 4, (S)-2-((S)-3-(4-aminophenyl)-2-hexanamidopropanamido)-N—((S)-4-methyl-1-((R)-2-methyloxiran-2-yl)-1-oxopentan-2-yl)hexanamide], the IC50 turned out to be 6.32 ± 4.99 nM with HepG2 cells and 5.99 ± 1.08 nM in the assay with P. falciparum Dd2 (setting [1]). Further, the “Selectivity Index” value in the assay on P. falciparum Dd2 is 1.06.
In the same order, the values of `CCCCCC(=O)N[C@@H](Cc1ccc(NC(=O)OC(C)(C)C)cc1)C(=O)N[C@@H](CCCC)C(=O)N[C@@H](CC(C)C)C(=O)[C@@]1(C)CO1` [Analog 5, tert-butyl (4-((S)-2-hexanamido-3-(((S)-1-(((S)-4-methyl-1-((R)-2-methyloxiran-2-yl)-1-oxopentan-2-yl)amino)-1-oxohexan-2-yl)amino)-3-oxopropyl)phenyl)carbamate] are 80.2 ± 26.5 nM, 5.55 ± 0.23 nM and 14.45.
`CCCCCC(=O)N[C@@H](Cc1c[nH]c2ccccc12)C(=O)N[C@@H](CCCC)C(=O)N[C@@H](CC(C)C)C(=O)[C@@]1(C)CO1` [Analog 6, (S)-2-((S)-2-hexanamido-3-(1H-indol-3-yl)propanamido)-N—((S)-4-methyl-1-((R)-2-methyloxiran-2-yl)-1-oxopentan-2-yl)hexanamide]: the IC50 in the assay with HepG2 cells was 3.27 ± 1.29 nM; in the assay with P. falciparum Dd2 (setting [1]) it was 3.11 ± 0.026 nM. In the assay on P. falciparum Dd2, the “Selectivity Index” value amounted to 1.05.
For the molecule `CCCCCC(=O)N[C@@H](Cc1ccccc1)C(=O)N[C@@H](CCCC)C(=O)N[C@@H](Cc1ccccc1)C(=O)[C@@]1(C)CO1` [Analog 7, (S)-2-((S)-2-hexanamido-3-phenylpropanamido)-N—((S)-1-((R)-2-methyloxiran-2-yl)-1-oxo-3-phenylpropan-2-yl)hexanamide], the IC50 came out at 30.8 ± 13.7 nM in the assay on HepG2 cells and 6.7 ± 0.451 nM in the assay on P. falciparum Dd2 (setting [1]). The “Selectivity Index” value in the assay on P. falciparum Dd2 was determined as 4.60.
For `CCCCCC(=O)N[C@@H](Cc1ccncc1)C(=O)N[C@@H](CCCC)C(=O)N[C@@H](Cc1ccccc1)C(=O)[C@@]1(C)CO1` [Analog 8, (S)-2-((S)-2-hexanamido-3-(pyridin-4-yl)propanamido)-N—((S)-1-((R)-2-methyloxiran-2-yl)-1-oxo-3-phenylpropan-2-yl)hexanamide], in that order: < 0.283 nM, 3.87 ± 1.37 nM and 0.07.
For `CCCCCC(=O)N[C@@H](Cc1ccc(N)cc1)C(=O)N[C@@H](CCCC)C(=O)N[C@@H](Cc1ccccc1)C(=O)[C@@]1(C)CO1` [Analog 9, (S)-2-((S)-3-(4-aminophenyl)-2-hexanamidopropanamido)-N—((S)-1-((R)-2-methyloxiran-2-yl)-1-oxo-3-phenylpropan-2-yl)hexanamide], in that order: 3410 ± 2310 nM, 81.8 ± 14 nM and 41.69.
In the same order, the values of `CCCCCC(=O)N[C@@H](Cc1ccc(NC(=O)OC(C)(C)C)cc1)C(=O)N[C@@H](CCCC)C(=O)N[C@@H](Cc1ccccc1)C(=O)[C@@]1(C)CO1` [Analog 10, tert-butyl (4-((S)-2-hexanamido-3-(((S)-1-(((S)-1-((R)-2-methyloxiran-2-yl)-1-oxo-3-phenylpropan-2-yl)amino)-1-oxohexan-2-yl)amino)-3-oxopropyl)phenyl)carbamate] are 478 ± 126 nM, 5.45 ± 2.49 nM and 87.71.
For `CCCCCC(=O)N[C@@H](Cc1c[nH]c2ccccc12)C(=O)N[C@@H](CCCC)C(=O)N[C@@H](Cc1ccccc1)C(=O)[C@@]1(C)CO1` [Analog 11, (S)-2-((S)-2-hexanamido-3-(1H-indol-3-yl)propanamido)-N—((S)-1-((R)-2-methyloxiran-2-yl)-1-oxo-3-phenylpropan-2-yl)hexanamide], the half-maximal inhibitory concentration (IC50) was 6.41 ± 2.26 nM in the assay on HepG2 cells and 9.77 ± 1.31 nM in the assay on P. falciparum Dd2 (setting [1]). Also, the “Selectivity Index” value in the assay on P. falciparum Dd2 is recorded as 0.66.
Take `CCCCCC(=O)N[C@@H](Cc1ccncc1)C(=O)N[C@@H](CCCC)C(=O)N[C@@H](CC(C)C)C(=O)[C@@]1(C)CO1` [Analog 20]: in the assay with P. falciparum Dd2 (listed as 20), the “Selectivity Index” value is 0.01 and the 50% inhibitory concentration (IC50) came out at 21.8 ± 3.67 nM.
